Laboratory results reported in patent publication US9708305B2, “Substituted 1,2,3,4-tetrahydroisoquinoline derivatives for the treatment of hormone-dependent diseases” (UNIVERSITÉ LAVAL, priority 2013, dated 2017).

What was measured:
Assay type in all cases: cell-based
[1] = system: osteoblast-like Saos-2 cells; test: Saos-2 cell proliferation, MTS; details: in percentage of control (100%; 0.1 nM of estradiol)
Excerpt: First, we wanted to evaluate their effect on cell proliferation. […] This is outlined in FIG. 8A. […] One of the main roles of osteoblasts in bone tissue is to construct a calcified extracellular matrix.^15 As such, bone formation is not principally due to osteoblasts proliferation but rather osteoblasts maturation into mature osteocytes. […] This is outlined in FIG. 8B.
CellTitter 96® Aqueous One Solution Cell Proliferation Assay was used as an indirect colorimetric measurement of cell proliferation according to the manufacturer's instructions. Briefly, after the treatments, 20 μL of MTS solution was added to each well (100 μL) of the plates and incubated at 37° C. for 2 h (Saos-2) or 4 h (T-47D). The absorbance at 490 nm was then measured with a Thermo max microplate reader (Molecular Devices, Sunnyvale, Calif.). The control (culture media+DMSO) is set to 100% of cell proliferation.
Saos-2 cells were suspended in phenol-red free McCoy's 5A medium supplemented with 10% charcoal-stripped FBS, penicillin (100 IU/mL) and streptomycin (100 μg/mL). The cells were seeded in 96-well plates at a density of 3 000 cells/well and allowed to attach. After 24 h, the inhibitors and the reference compounds diluted in fresh culture media were added to the wells and replaced every 2 days for 7 days of treatment.

[2] = system: T-47D cells; test: T-47D cell proliferation (estrogenicity / cytotoxicity), MTS
[3] = system: MCF-7 (ER+) cells; test: Proliferative (estrogenic) activity on MCF-7 (ER+) cells; details: 0.1 nM; 7 days; control 100%
Procedure: The next step was to determine the presence or absence of estrogenic activity. To do so, cell proliferative assays were carried out on MCF-7 cells. […] Phenols of the corresponding sulfamate library 3-EO and 4-EO are referred to as library 3′-EO and library 4′-EO, respectively.
This cell assay was carried out according to a procedure previously described to determine the estrogenic activity of enzyme inhibitors on the growth of estrogen-sensitive MCF-7 cells.^77 All chemicals tested were first dissolved in DMSO and subsequent dilutions were done in the proper cell culture media. The final concentration of DMSO in the culture medium was 0.1% or less. 3-(4,5-dimethylthiazol-2-yl)-5-(3-carboxymethoxyphenyl)-2-(4-sulfophenyl)-2-H-tetrazolium (MTS) was used as an indirect colorimetric measurement of cell proliferation according to the manufacturer's instructions (Promega, Madison, Wis.). At the end of the treatments, 20 μL of MTS solution was added to each well (100 μL) and the MCF-7 cells were incubated 4 h at 37° C. The absorbance at 490 nm was then measured with a Thermo max microplate reader (Molecular Devices, Sunnyvale, Calif.). The control (culture media+DMSO) is set to 100% of cell proliferation.

[4] = system: alkaline phosphatase activity in Saos-2 cells; test: Alkaline phosphatase assay (Saos-2 cells), phenol library; details: 1 nM; control (no treatment) fixed at 100%
Procedure: We also investigated the effect of selected phenol derivatives on alkaline phosphatase activity in Saos-2 cells (FIG. 13B).
Saos-2 cells were used similarly as reported in the cell proliferation assay. The cells were seeded at a density of 2 000 cells/well and treated for 3 days with each compound to be tested. The alkaline phosphatase (ALP) activity was measured using the Sensolyte® pNPP Alkaline Phosphatase Assay Kit *Colorimetric* (AnaSpec, Freemont, Calif.) following the manufacturer's protocol. Briefly, after three days of treatment, the cells were washed twice with washing buffer (provided with the kit) and lysed with 0.2% Triton X-100. The cell lysates were centrifuged and the supernatants were used to determine ALP activity. The supernatants were deposed in a 96-well plate and incubated for 30 minutes with a p-nitrophenyl phosphate solution (provided with the kit). The absorbance at 405 nm was measured with a Thermo max microplate reader (Molecular Devices, Sunnyvale, Calif.). The control (culture media+DMSO) is set to 100% of alkaline phosphatase activity.

C[C@]12CC[C@@H]3c4ccc(O)cc4CC[C@H]3[C@@H]1CC[C@@H]2O [E2, 17β-estradiol, reference compound]
Bone cells Saos-2 (ER+) SERM effect Proliferative activity (%) ([1]; 0.1 μM): 100%
Bone cells Saos-2 (ER+) SERM effect Proliferative activity (%) ([1]; 1 μM): 100%
T-47D cell proliferation ([2]; 0.1 nM, control 100%, 7 days): approximately 160%
Breast cancer cells T-47D (ER+) Agonist activity (%) ([2]; 1 μM, in % of control (100%; 0.1 nM of estradiol)): 100%
proliferation of MCF-7 (ER+) cells [3]: 176%
ALP activity in Saos-2 cells [4]: 148%
